Tests used:
Experiment in all cases: relative viability (nuclei count vs DMSO), 5 days (fraction); higher = more cells survive
Afatinib + Decitabine = compound: CN(C)C/C=C/C(=O)Nc1cc2c(Nc3ccc(F)c(Cl)c3)ncnc2cc1O[C@H]1CCOC1 [Afatinib] + Nc1ncn([C@H]2C[C@H](O)[C@@H](CO)O2)c(=O)n1 [Decitabine] (partner 2 µM)
Outline: (§1)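 Nuclei were stained with Hoechst during a one-step fixation (final 0.05% Triton X-100, 1% formaldehyde, 1 ug/ml Hoechst) carried out 5 days after dosing, then counted on 4× images. The cells, lung cancer lines in 1536-well plates, had been dosed by pin tool the day after seeding with one drug alone or a fixed anchor-drug dose plus five library-drug doses (not always all listed) in √10 steps. Relative viability is the nuclei count in treated wells divided by that in vehicle wells, and each value is the median of duplicate plates.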

Afatinib + Bortezomib = compound: CN(C)C/C=C/C(=O)Nc1cc2c(Nc3ccc(F)c(Cl)c3)ncnc2cc1O[C@H]1CCOC1 [Afatinib] + CC(C)C[C@H](NC(=O)[C@H](Cc1ccccc1)NC(=O)c1cnccn1)B(O)O [Bortezomib] (partner 0.002 µM)
Outline: as §1

Afatinib + Tozasertib = compound: CN(C)C/C=C/C(=O)Nc1cc2c(Nc3ccc(F)c(Cl)c3)ncnc2cc1O[C@H]1CCOC1 [Afatinib] + Cc1cc(Nc2cc(N3CCN(C)CC3)nc(Sc3ccc(NC(=O)C4CC4)cc3)n2)n[nH]1 [Tozasertib] (partner 0.1 µM)
Outline: as §1

Afatinib + AZD7762 = compound: CN(C)C/C=C/C(=O)Nc1cc2c(Nc3ccc(F)c(Cl)c3)ncnc2cc1O[C@H]1CCOC1 [Afatinib] + NC(=O)Nc1cc(-c2cccc(F)c2)sc1C(=O)N[C@H]1CCCNC1 [AZD7762] (partner 0.2 µM)
Outline: as §1

Cell Line | relative viability (Afatinib + Decitabine; first compound 0.005 µM) | relative viability (Afatinib + Decitabine; first compound 0.01581 µM) | relative viability (Afatinib + Decitabine; first compound 0.05 µM) | relative viability (Afatinib + Decitabine; first compound 0.1581 µM) | relative viability (Afatinib + Decitabine; first compound 0.5 µM) | relative viability (Afatinib + Bortezomib; first compound 0.005 µM) | relative viability (Afatinib + Bortezomib; first compound 0.01581 µM) | relative viability (Afatinib + Bortezomib; first compound 0.05 µM) | relative viability (Afatinib + Bortezomib; first compound 0.1581 µM) | relative viability (Afatinib + Bortezomib; first compound 0.5 µM) | relative viability (Afatinib + Tozasertib; first compound 0.005 µM) | relative viability (Afatinib + Tozasertib; first compound 0.01581 µM) | relative viability (Afatinib + Tozasertib; first compound 0.05 µM) | relative viability (Afatinib + Tozasertib; first compound 0.1581 µM) | relative viability (Afatinib + Tozasertib; first compound 0.5 µM) | relative viability (Afatinib + AZD7762; first compound 0.005 µM) | relative viability (Afatinib + AZD7762; first compound 0.01581 µM) | relative viability (Afatinib + AZD7762; first compound 0.05 µM) | relative viability (Afatinib + AZD7762; first compound 0.1581 µM) | relative viability (Afatinib + AZD7762; first compound 0.5 µM)
HCC-366 | 0.293 | 0.407 | 0.383 | 0.324 | 0.34 | 1.1 | 1.07 | 1.08 | 0.972 | 1.06 | 0.122 | 0.143 | 0.0823 | 0.0878 | 0.069 | 0.194 | 0.285 | 0.259 | 0.337 | 0.264
NCI-H1944 | 0.423 | 0.403 | 0.419 | 0.343 | 0.344 |  |  |  |  |  | 0.234 | 0.247 | 0.216 | 0.195 | 0.208 | 0.297 | 0.496 | 0.413 | 0.343 | 0.404
SW 1573 | 0.434 | 0.422 | 0.542 | 0.497 | 0.528 | 1.12 | 1.07 | 1.05 | 0.98 | 1.1 | 0.16 | 0.175 | 0.202 | 0.158 | 0.171 |  |  |  |  | 
COR-L 105 | 0.552 | 0.433 | 0.415 | 0.338 | 0.356 | 0.3 | 0.31 | 0.334 | 0.262 | 0.362 | 0.333 | 0.255 | 0.258 | 0.165 | 0.206 |  |  |  |  | 
EBC-1 |  |  |  |  |  | 0.594 | 0.59 | 0.562 | 0.507 | 0.705 |  |  |  |  |  |  |  |  |  | 
SK-LU-1 | 0.641 | 0.674 | 0.661 | 0.621 | 0.619 | 1.07 | 1.28 | 1.33 | 1.28 | 1.09 | 0.332 | 0.32 | 0.355 | 0.322 | 0.277 |  |  |  |  | 
NCI-H1648 | 0.551 | 0.419 | 0.378 | 0.417 | 0.34 |  |  |  |  |  | 0.734 | 0.624 | 0.592 | 0.241 | 0.311 | 0.735 | 0.596 | 0.531 | 0.58 | 0.546
SW 900 | 0.502 | 0.334 | 0.378 | 0.398 | 0.443 |  |  |  |  |  | 0.576 | 0.646 | 0.61 | 0.438 | 0.444 | 0.48 | 0.546 | 0.615 | 0.501 | 0.548
NCI-H520 | 0.539 | 0.454 | 0.45 | 0.483 | 0.413 | 0.712 | 0.634 | 0.748 | 0.579 | 0.614 | 0.435 | 0.355 | 0.462 | 0.342 | 0.422 |  |  |  |  | 
UMC-11 | 0.664 | 0.602 | 0.584 | 0.554 | 0.63 | 0.998 | 0.735 | 0.667 | 0.669 | 0.777 | 0.206 | 0.199 | 0.198 | 0.207 | 0.187 |  |  |  |  | 
NCI-H1792 | 0.505 | 0.592 | 0.489 | 0.522 | 0.513 | 0.841 | 0.759 | 0.975 | 0.906 | 0.938 |  |  |  |  |  | 0.615 | 0.534 | 0.703 | 0.643 | 0.466
NCI-H1793 | 0.43 | 0.344 | 0.329 | 0.27 | 0.417 |  |  |  |  |  | 0.315 | 0.377 | 0.252 | 0.147 | 0.242 | 0.193 | 0.304 | 0.451 | 0.268 | 0.231
NCI-H1563 |  |  |  |  |  | 0.882 | 0.774 | 0.919 | 0.694 | 0.759 |  |  |  |  |  |  |  |  |  | 
NCI-H1395 | 0.773 | 0.741 | 0.744 | 0.657 | 0.672 |  |  |  |  |  | 0.784 | 0.759 | 0.712 | 0.709 | 0.667 | 0.388 | 0.378 | 0.377 | 0.385 | 0.354
NCI-H1299 |  |  |  |  |  | 0.983 | 0.978 | 1.12 | 1.02 | 1.04 |  |  |  |  |  |  |  |  |  | 
NCI-H2228 |  |  |  |  |  | 1.19 | 0.812 | 0.984 |  | 0.901 | 0.271 | 0.259 | 0.217 | 0.191 | 0.205 |  |  |  |  | 
NCI-H2170 | 0.459 | 0.469 | 0.405 | 0.176 | 0.2 |  |  |  |  |  | 0.651 | 0.574 | 0.355 | 0.221 | 0.203 | 0.66 | 0.55 | 0.245 | 0.144 | 0.151
NCI-H522 | 0.644 | 0.672 | 0.736 | 0.655 | 0.581 |  |  |  |  |  | 0.512 | 0.535 | 0.521 | 0.449 | 0.401 | 0.76 | 0.812 | 0.817 | 0.767 | 0.748
A549 | 0.28 | 0.272 | 0.278 | 0.232 | 0.299 |  |  |  |  |  |  |  |  |  |  |  |  |  |  | 
NCI-H358 | 0.191 | 0.18 | 0.149 | 0.163 | 0.136 |  |  |  |  |  | 0.0992 | 0.111 | 0.0922 | 0.0887 | 0.076 | 0.406 | 0.373 | 0.284 | 0.273 | 0.22
CAL-12T |  |  |  |  |  | 1.2 | 0.81 | 0.608 | 0.56 | 0.644 | 0.315 | 0.339 | 0.311 | 0.168 | 0.189 | 0.631 | 0.594 | 0.546 | 0.491 | 0.505
COR-L23 | 0.504 | 0.436 | 0.468 | 0.47 | 0.529 | 1.1 | 1.04 | 1.11 | 1.03 | 0.988 | 0.216 | 0.202 | 0.216 | 0.167 | 0.166 |  |  |  |  | 
IA-LM |  |  |  |  |  | 0.929 | 0.719 | 0.796 | 0.828 | 0.825 |  |  |  |  |  |  |  |  |  | 
NCI-H1650 | 0.383 | 0.403 | 0.426 | 0.503 | 0.368 | 0.222 |  | 0.204 | 0.241 | 0.207 | 0.409 |  | 0.408 | 0.313 | 0.343 |  |  |  |  | 
Calu-6 |  |  |  |  |  | 1.15 | 0.97 | 1.13 | 1 | 1.08 |  |  |  |  |  |  |  |  |  | 

Source: the supplement of paper PMC10307832
